According to patent publication US20120128650A1, “EXTENDED ACTING OXYGEN GENERATING COMPOSITION FOR TREATING MICROBIAL INFECTIONS” (DEC INTERNATIONAL NZ LIMITED, priority 2009, published 2012):

Columns and labels:
Staphylococcus aureus = experiment: Growth of Staphylococcus aureus in mastitic milk, colony counts; assay type: cell-based; conditions: 10 micromoles per ml added at 60 minutes, oxygen-limited
Experimental: Milk was collected at the morning milking, using aseptic technique, from a quarter that had been identified as having a sub-clinical infection with a single organism. The milk was taken to the laboratory and within 2 hours of collection divided amongst sterile incubation containers. The container was either a sealed vessel that was filled so there was no head-space and could be sampled through a rubber septum (limited oxygen) or a flask with a large surface area and head space, incubated in a shaking incubator (oxygenated). Because milk is aerated during collection and handling the samples should have the same oxygen content at the start of incubation. The growth rate was determined by sampling at regular intervals, diluting into recovery diluent, plating and counting the number of colonies.

[1] = pH, oxygen and peroxide analysis after addition of coated sodium percarbonate to milk; assay type: physicochemical
Experimental: Sodium percarbonate coated with ethyl cellulose was added to 20 mL pasteurized and homogenized milk. The pH value (by pH Meter), the concentration of oxygen (by potentiometric electrode) and peroxide (by chemical test strips) were measured at interval sampling time, as shown in FIG. 4A-C.

| amount required to deliver 30 mg peroxide [1] | SMILES | number of viable organisms (Staphylococcus aureus; after 4 hours, from around 3000 cfu per ml at 60 minutes) | number of viable organisms (Staphylococcus aureus; at 10 hours and thereafter) |
| --- | --- | --- | --- |
| – | OO [Hydrogen peroxide] | 20 cfu per ml | no detectable organisms |
| 70 to 100 mg | O=C([O-])[O-].O=C([O-])[O-].OO.OO.OO.[Na+].[Na+].[Na+].[Na+] [sodium percarbonate] | – | – |
